Values joined by “and” are separate entries in the source; they are usually repeats but may differ in a detail not shown here. Identical values can stand only once.
Assay: RSV-A Assay: The description is Japanese.

SMILES | EC50
Cc1nsc(N2CCOCC2)c1-c1nnc(N[C@H]2N=C(c3ccccc3)c3ccccc3NC2=O)o1 | in the range around 600 nM
N#Cc1ccn2ncc(-c3nnc(N[C@H]4N=C(c5ccccc5)c5ccccc5NC4=O)o3)c2c1 | > 800 nM
CCOC(=O)c1nc(C2(O)CCC2)sc1N1CCOCC1 | < 400 nM
O=C1Nc2ccccc2C(c2ccccc2)=NC1Nc1nnc(-c2cn(-c3ccc(F)cn3)nc2N2CCOCC2)o1 (stereo not given) | < 400 nM
CCOC(=O)c1csc(C(F)(F)C(F)(F)F)n1 | < 400 nM
COCCNc1sccc1-c1nnc(N[C@H]2N=C(c3ccccc3)c3ccccc3NC2=O)o1 | > 800 nM
CO[C@@H]1COC[C@H]1Nc1cc(C(F)(F)F)cnc1-c1nnc(N[C@H]2N=C(c3ccccc3)c3ccccc3NC2=O)o1 | < 400 nM
O=C1Nc2ccccc2C(c2ccccc2)=N[C@@H]1Nc1nnc(-c2ncc(C(F)(F)F)cc2N[C@@H]2CCOC2)o1 | < 400 nM
O=C1Nc2ccccc2C(c2ccccc2)=NC1Nc1cc(N2CCOCC2)cnn1 (stereo not given) | > 800 nM
COCCCc1sc(C)nc1-c1nnc(N[C@H]2N=C(c3ccccc3)c3ccccc3NC2=O)o1 | > 800 nM
O=C1Nc2ccccc2C(c2ccccc2)=N[C@@H]1Nc1nnc(-c2ncc(C(F)(F)F)cc2N[C@H]2CCOC2)o1 | > 800 nM
N#Cc1ccc2nccc(-c3nnc(N[C@H]4N=C(c5ccccc5)c5ccccc5NC4=O)o3)c2c1 | > 800 nM
CC(C)(c1nc(-c2nnc(N[C@H]3N=C(c4ccccc4)c4ccccc4NC3=O)o2)c(N2CCOCC2)s1)N1CCOCC1 | < 400 nM
COC[C@H]1C[C@@H]1c1cc(C(F)(F)F)cnc1-c1nnc(N[C@@H]2N=C(c3ccccc3)c3ccccc3NC2=O)o1 | > 800 nM
O=C1Nc2ccccc2C(c2ccccc2)=N[C@@H]1Nc1nnc(-c2nc(C(F)(F)F)sc2N[C@@H]2CCOC2)o1 | < 400 nM
CCOC(=O)c1cnn2ccc(C)cc12 | > 800 nM
COC[C@H]1C[C@@H]1c1cc(C(F)(F)F)cnc1-c1nnc(N[C@H]2N=C(c3ccccc3)c3ccccc3NC2=O)o1 | > 800 nM
O=C1Nc2ccccc2C(c2ccccc2)=N[C@@H]1Nc1nnc(-c2ncc(C(F)(F)F)cc2N2CCOC(C(F)(F)F)C2)o1 (stereo not given in full) | < 400 nM
O=C1Nc2ccccc2C(c2ccccc2)=N[C@@H]1Nc1nnc(-c2cn(-c3ccc(C(F)(F)F)cn3)nc2N2CCOCC2)o1 | in the range around 600 nM
O=C1Nc2ccccc2C(c2ccccc2)=N[C@@H]1Nc1nnc(-c2oc3cc(F)ccc3c2N2CCOCC2)o1 | in the range around 600 nM
CCOC(=O)c1nc(C(F)(F)F)sc1C1=CCOCC1 | < 400 nM
O=C1OCCc2cc(C(F)(F)F)cnc21 | > 800 nM
COC[C@@H]1C[C@H]1c1cc(C(F)(F)F)cnc1-c1nnc(N[C@H]2N=C(c3ccccc3)c3ccccc3NC2=O)o1 | > 800 nM
COC[C@@H](C)Nc1sc(C(F)(F)F)nc1-c1nnc(N[C@H]2N=C(c3ccccc3)c3ccccc3NC2=O)o1 | in the range around 600 nM
CCOC(=O)c1ncc(C(F)F)cc1N1CCOCC1 | < 400 nM

SMILES | EC50
O=C1Nc2ccccc2C(c2ccccc2)=N[C@H]1Nc1nnc(-c2nc(C(F)(F)F)sc2N2CCO[C@H]3C[C@H]32)o1 | > 800 nM
COC[C@@H]1CCCN1c1sc(C(F)(F)F)nc1-c1nnc(N[C@H]2N=C(c3ccccc3)c3ccccc3NC2=O)o1 | > 800 nM
O=C1Nc2ccccc2C(c2ccccc2)=N[C@@H]1Nc1nnc(-c2ncc(C(F)(F)F)cc2N2CCOC3CC32)o1 (stereo not given in full) | < 400 nM
O=C1Nc2ccccc2C(c2ccccc2)=N[C@H]1Nc1nnc(-c2nc(C(F)(F)F)sc2N2CCO[C@@H]3C[C@@H]32)o1 | > 800 nM
O=C1Nc2ccccc2C(c2ccccc2)=N[C@@H]1Nc1nnc(-c2nc(C3(C(F)(F)F)CCC3)sc2N2CCOCC2)o1 | < 400 nM
O=C1Nc2ccccc2C(c2ccccc2)=N[C@@H]1Nc1nnc(-c2cn(CC3CC3)nc2N2CCOCC2)o1 | < 400 nM and in the range around 600 nM
O=C1Nc2ccccc2C(c2ccccc2)=N[C@@H]1Nc1nnc(-c2nc(C(F)(F)F)sc2NCC2COC2)o1 | in the range around 600 nM
O=C1Nc2ccccc2C(c2ccccc2)=N[C@@H]1Nc1nnc(-c2ccsc2N2CCOCC2)o1 | < 400 nM
O=C1Nc2ccccc2C(c2ccccc2)=N[C@@H]1Nc1nnc(-c2ncc(C(F)(F)F)cc2NC2COC2)o1 | < 400 nM
O=C1Nc2ccccc2C(c2ccccc2)=N[C@@H]1Nc1nnc(-c2cn(CC(F)(F)F)nc2N2CCOCC2)o1 | > 800 nM
O=C1Nc2ccccc2C(c2ccccc2)=N[C@@H]1Nc1nnc(-c2cn(-c3ccc(C(F)(F)F)nc3)nc2N2CCOCC2)o1 | < 400 nM and in the range around 600 nM
O=C1Nc2ccccc2C(c2ccccc2)=N[C@@H]1Nc1nnc(-c2nc(C(F)(F)F)sc2N2CCO[C@H]3C[C@H]32)o1 | < 400 nM
O=C1Nc2ccccc2C(c2ccccc2)=N[C@@H]1Nc1cc(-c2ccccc2)cnn1 | > 800 nM
CCOC(=O)c1cnn2c1N(CCOC)CCC2 | in the range around 600 nM
O=C1Nc2ccccc2C(c2ccccc2)=N[C@@H]1Nc1nnc(-c2oc3cccc(F)c3c2N2CCOCC2)o1 | < 400 nM
COC[C@@H]1C[C@H]1c1cc(C(F)(F)F)cnc1-c1nnc(N[C@@H]2N=C(c3ccccc3)c3ccccc3NC2=O)o1 | > 800 nM
COC[C@H]1CCCN1c1sc(C(F)(F)F)nc1-c1nnc(N[C@H]2N=C(c3ccccc3)c3ccccc3NC2=O)o1 | > 800 nM
CO[C@@H](C)CNc1sc(C(F)(F)F)nc1-c1nnc(N[C@H]2N=C(c3ccccc3)c3ccccc3NC2=O)o1 | < 400 nM
O=C1Nc2ccccc2C(c2ccccc2)=N[C@@H]1Nc1nnc(-c2nc(C(F)(F)F)sc2N2CCO[C@@H]3C[C@@H]32)o1 | > 800 nM
CC(C)(O)c1nc(-c2nnc(N[C@H]3N=C(c4ccccc4)c4ccccc4NC3=O)o2)c(N2CCOCC2)s1 | < 400 nM
COCCNc1sc(C(F)(F)F)nc1-c1nnc(N[C@H]2N=C(c3ccccc3)c3ccccc3NC2=O)o1 | < 400 nM
CC1(c2nc(-c3nnc(N[C@H]4N=C(c5ccccc5)c5ccccc5NC4=O)o3)c(N3CCOCC3)s2)CCC1 | < 400 nM
COC1C2CNCC21 (stereo not given) | > 800 nM
O=C1Nc2ccccc2C(c2ccccc2)=N[C@@H]1Nc1nnc(-c2ncc(C(F)(F)F)cc2N2CCOc3ccccc32)o1 | > 800 nM
O=C1Nc2ccccc2C(c2ccccc2)=N[C@@H]1Nc1nnc(-c2ncc(C(F)(F)F)cc2N2CCOCC2)o1 [ZELICAPAVIR] | < 400 nM (2×) and > 800 nM

Source: ChEMBL document CHEMBL5729210, “Benzodiazepine derivatives as RSV inhibitors” (2022)
